The text below walks through data of patent publication US7166636B2, “Indole-amid derivatives which possess glycogen phosphorylase inhibitory activity” (AstraZeneca AB, priority 2002, dated 2007).

The subject of test [1] is hepatocytes. The conditions noted are these: cited from earlier work; for glucose output: glucagon stimulated.
For test [2], the system named is db/db and ob/ob mice. To be noted: db/db and ob/ob mice following treatment; cited from earlier work.
Test [3] concerns the target T1, Human recombinant liver glycogen phosphorylase a (hrl GPa) (Homo sapiens, UniProt P06737).
T1 sequence (P06737 1-847): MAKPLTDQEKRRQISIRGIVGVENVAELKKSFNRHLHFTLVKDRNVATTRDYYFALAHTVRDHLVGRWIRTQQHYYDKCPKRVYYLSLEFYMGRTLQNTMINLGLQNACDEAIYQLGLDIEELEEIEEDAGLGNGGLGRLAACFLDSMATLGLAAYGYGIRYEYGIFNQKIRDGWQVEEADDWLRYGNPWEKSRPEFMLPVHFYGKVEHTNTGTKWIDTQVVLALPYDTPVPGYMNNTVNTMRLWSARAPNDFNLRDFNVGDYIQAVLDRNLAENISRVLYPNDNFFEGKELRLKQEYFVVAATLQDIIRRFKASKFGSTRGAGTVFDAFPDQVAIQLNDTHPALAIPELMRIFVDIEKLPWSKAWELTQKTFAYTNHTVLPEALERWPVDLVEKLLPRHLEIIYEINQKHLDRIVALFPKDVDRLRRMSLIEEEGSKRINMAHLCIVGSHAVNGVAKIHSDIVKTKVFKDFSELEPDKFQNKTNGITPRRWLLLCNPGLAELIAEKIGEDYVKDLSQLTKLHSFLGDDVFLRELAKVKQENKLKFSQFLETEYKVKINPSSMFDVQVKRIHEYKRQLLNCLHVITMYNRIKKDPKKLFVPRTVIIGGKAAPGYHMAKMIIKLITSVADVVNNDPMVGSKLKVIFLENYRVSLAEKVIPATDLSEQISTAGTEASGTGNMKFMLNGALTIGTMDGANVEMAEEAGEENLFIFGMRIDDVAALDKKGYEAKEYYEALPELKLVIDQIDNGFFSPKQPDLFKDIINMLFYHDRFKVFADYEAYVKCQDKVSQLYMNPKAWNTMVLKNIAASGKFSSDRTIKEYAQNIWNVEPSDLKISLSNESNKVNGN
The experiment in a line: Glycogen phosphorylase a inhibition, glycogen degradation, multienzyme coupled assay (NADH fluorescence). It counts as biochemical. The conditions noted are these: hrl GPa 20 nM, 6 hours at 30° C. The method, then:
The activity of the compounds is alternatively determined by measuring the inhibitory effect of the compounds on glycogen degradation, the production of glucose-1-phosphate from glycogen is monitored by the multienzyme coupled assay, as described in EP 0 846 464 A2, general method of Pesce et al (Pesce, M A, Bodourian, S H, Harris, R C, and Nicholson, J F (1977) Clinical Chemistry 23, […]). The reactions were in 384 well microplate format in a volume of 50 μl. The change in fluorescence due to the conversion of the co-factor NAD to NADH is measured at 340 nm excitation, 465 nm emission in a Tecan Ultra Multifunctional Microplate Reader. The reaction is in 50 OmM HEPES, 3.5 mM KH2PO4, 2.5 mM MgCl2, 2.5 mM ethylene glycol-bis(b-aminoethyl ether) N,N,N′,N′-tetraacetic acid, 100 mM KCl, 8 mM D-(+)-glucose pH7.2, containing 0.5 mM dithiothreitol, the assay buffer solution. Human recombinant liver glycogen phosphorylase a (hrl GPa) 20 nM is pre-incubated in assay buffer solution with 6.25 mM NAD, 1.25 mg type III glycogen at 1.25 mg ml^−1 the reagent buffer, for 30 minutes. […] The non-inhibited activity of GPa is measured in the presence of 10 μl 5% DMSO in assay buffer solution and maximum inhibition measured in the presence of 5 mgs ml^−1 N-ethylmaleimide. […] Relative Fluoresence Units (RFUs) are measured at 340 nm excitation, 465 nm emission. […]

Test [4] deals with conscious dogs. To be noted: following a glucagon challenge; cited from earlier work.

pIC50: −log10 of the molar value.

For the molecule `O=C(N[C@@H](Cc1ccc(F)cc1)C(=O)N1CCC(O)CC1)c1cc2cc(Cl)ccc2[nH]1` [CP320626], in test [1], the glucagon stimulated glycogenolysis entry was “reduce” and the glucose output result is on record as “reduce”. For the same molecule, in test [2], the plasma glucose concentration entry is given as “reduced, in a dose related manner”.
For the molecule `CN(C)C(=O)[C@H](O)[C@H](Cc1ccccc1)NC(=O)c1cc2cc(Cl)ccc2[nH]1` [CP91149], in test [1], the glucagon stimulated glycogenolysis entry was “reduce” and the glucose output result is recorded as “reduce”. The plasma glucose concentration entry in test [2] was “reduced, in a dose related manner”.
On to `COC(=O)c1ncoc1[C@H](Cc1ccccc1)NC(=O)c1cc2cc(Cl)ccc2[nH]1` [Example 1, Methyl (S)-5-{1-[(5-chloro-1H-indol-2-ylcarbonyl)amino]-2-phenylethyl}oxazole-4-carboxylate], for which the pIC50 in test [3] is 5.62.
Regarding `CCN1C(C)=C(C(=O)OC(C)C)C(c2ccccc2Cl)C2=C1COC2=O` (stereo not drawn) [Bay R 3401], in test [4], the arterial plasma glucose entry is listed as “reduced significantly” and the hepatic glucose output result is reported as “reduced significantly”.
